# Patent US9216169B2, “Pharmaceutical composition comprising candesartan or ester thereof and chlortalidone, and use thereof” (TIANJIN INSTITUTE OF PHARMACEUTICAL RESEARCH, priority 2011, dated 2015)
# Tests used:
# [1] = test system: Spontaneously hypertensive rats (SHR); assay: SBP of SHR by Tail-Cuff method, continuous intragastric administration for 8 days (Examples 1-7); type: in vivo, rat
# Protocol: Spontaneously hypertensive rats (SHR), male, are provided by Beijing Vital River Laboratory Animal Technology Co., Ltd. The number of animal production license is SCXK (Jing) 2007-0001. Animals are raised in an observation room at the room temperature of 25±2° C. controlled by central air-conditioning system and with artificial lighting of 12 h/day. The animals are raised in separate cages sized 43×27×18 cm with 4 animals for each cage. The rats are free access to water and are fed with block fodder everyday, and the water supply is refreshed once a day. The temperature of the room for measuring the blood pressure is 26±2° C.
# The blood pressure is measured by Tail-Cuff method and the hear rate is measured according to the pulse frequency. Animals are pre-trained for the blood pressure measurement for more than 2 weeks so as to adapt to the environment of measurement. Animals are placed in a isothermal bag at 37° C. to be prewarmed for 5 to 10 min for formal measurement. Blood pressures of the rats are measured from tail arteries for 2 to 3 times at rest states, and an average value is taken as each blood pressure measured value. All data are collected and preserved by a computer.
# SHRs with systolic blood pressures (SBPs) >190 mmHg are selected for experiment.
# Rats are randomly divided into 14 groups according to their blood pressures with each group having 7 rats. Animals are fasted overnight and measured for the blood pressure of pre-administration at the day of experiment, and then administered drugs in accordance with the following method:
# The single-drug group is intragastrically administered candesartan (Can) or chlorthalidone (Chl), with the dosage of Can of 0.36 mg/kg and the dosages of Chl of 0.0675, 0.36, 0.54, 0.72, 1.125 and 2.25 mg/kg respectively;
# The pharmaceutical composition is administered with 6 different doses (denoted by F1, F2, F3, F4, F5 and F6 respectively). Specifically, the ratios of the dosages of Can+Chl in all pharmaceutical compositions are:
# The administration volumes are all 5 ml/kg.
# Rats are continuously administered for 8 days. SBPs are measured 2, 4, 8, 12 and 24 hours after the last administration. The area under blood pressure reduction-time curve from 0 to 24 h (AUC0-24) and the maximum blood pressure reduction value are calculated.
# The calculated results are expressed as mean±standard error ( x±SE); statistical treatment is performed using unpaired t test between groups to compare the significance of the average difference; the interaction between drugs are determined by using factorial analysis of variance, and P<0.05 means the difference has statistical significance.
# [2] = test system: Spontaneously hypertensive rats (SHR); assay: SBP of SHR by Tail-Cuff method, first administration and continuous administration for 14 days (Examples 8-12); type: in vivo, rat
# [3] = cited from earlier work
# patients = details: study in 1714 patients; cited from earlier work
# [4] = Chl 2.25 mg/kg i.g. 8 days, 2 h after last administration
# [5] = Chl 2.25 mg/kg i.g. 8 days, 4 h after last administration
# [6] = Chl 2.25 mg/kg i.g. 8 days, 8 h after last administration
# [7] = Chl 2.25 mg/kg i.g. 8 days, 12 h after last administration
# [8] = Chl 2.25 mg/kg i.g. 8 days, 24 h after last administration
# [9] = Chl 2.25 mg/kg i.g. 8 days, pre-administration
# [10] = Chl, dosage 0.36 mg/kg in Table 3 (Example 3 title: 0.54 mg/kg), i.g. 8 days, 2 h after last administration
# [11] = Chl, dosage 0.36 mg/kg in Table 3 (Example 3 title: 0.54 mg/kg), i.g. 8 days, 4 h after last administration
# [12] = Chl, dosage 0.36 mg/kg in Table 3 (Example 3 title: 0.54 mg/kg), i.g. 8 days, 8 h after last administration
# [13] = Chl, dosage 0.36 mg/kg in Table 3 (Example 3 title: 0.54 mg/kg), i.g. 8 days, 12 h after last administration
# [14] = Chl, dosage 0.36 mg/kg in Table 3 (Example 3 title: 0.54 mg/kg), i.g. 8 days, 24 h after last administration
# [15] = Chl, dosage 0.36 mg/kg in Table 3 (Example 3 title: 0.54 mg/kg), i.g. 8 days, pre-administration
# [16] = Chl, dosage 0.36 mg/kg in Table 4 (Example 4 title: 0.72 mg/kg), i.g. 8 days, 2 h after last administration
# [17] = Chl, dosage 0.36 mg/kg in Table 4 (Example 4 title: 0.72 mg/kg), i.g. 8 days, 4 h after last administration
# [18] = Chl, dosage 0.36 mg/kg in Table 4 (Example 4 title: 0.72 mg/kg), i.g. 8 days, 8 h after last administration
# [19] = Chl, dosage 0.36 mg/kg in Table 4 (Example 4 title: 0.72 mg/kg), i.g. 8 days, 12 h after last administration
# [20] = Chl, dosage 0.36 mg/kg in Table 4 (Example 4 title: 0.72 mg/kg), i.g. 8 days, 24 h after last administration
# [21] = Chl, dosage 0.36 mg/kg in Table 4 (Example 4 title: 0.72 mg/kg), i.g. 8 days, pre-administration
# [22] = 12.5-25 mg/d of chlorthalidone, clinical studies
smiles,measurement,setting,value
"NS(=O)(=O)c1cc(C2(O)NC(=O)c3ccccc32)ccc1Cl (stereo not drawn) [Chl, Chlorthalidone]",SBP difference value compared with the basic value,"[1]; Chl 1.125 mg/kg i.g. 8 days, pre-administration",(−1.7 mmHg
same,period after administration with significant antihypertensive effect,[1]; Chl 2.25 mg/kg,2 to 12 h
same,AUC0-24h (area under blood pressure reduction-time curve),[1]; Chl 2.25 mg/kg i.g. 8 days,−199.0 mmHg · h
same,maximum reduction of the blood pressure,[1]; Chl 2.25 mg/kg i.g. 8 days,−15.0 mmHg
same,SBP,[1]; [4],198 mmHg
same,SBP difference value compared with the basic value,[1]; [4],(−8.3 mmHg
same,SBP,[1]; [5],192 mmHg
same,SBP difference value compared with the basic value,[1]; [5],(−11.3 mmHg
same,SBP,[1]; [6],195 mmHg
same,SBP difference value compared with the basic value,[1]; [6],(−11.1 mmHg
same,SBP,[1]; [7],197 mmHg
same,SBP difference value compared with the basic value,[1]; [7],(−9.4 mmHg
same,SBP,[1]; [8],202 mmHg
same,SBP difference value compared with the basic value,[1]; [8],(−4.6 mmHg
same,SBP,[1]; [9],205 mmHg
same,SBP difference value compared with the basic value,[1]; [9],(−1.3 mmHg
same,influence on the maximum reduction of SBP and the AUC compared with the blank control group,"[1]; Chl 0.0675, 0.36, 0.54 and 0.72 mg/kg",no significant influence
same,influence on the maximum reduction of SBP and the AUC compared with the blank control group,[1]; Chl 1.125 and 2.25 mg/kg,significant decrease
same,SBP,[1]; [10],202 mmHg
same,SBP difference value compared with the basic value,[1]; [10],(−2.0 mmHg
same,SBP,[1]; [11],202 mmHg
same,SBP difference value compared with the basic value,[1]; [11],(−2.0 mmHg
same,SBP,[1]; [12],201 mmHg
same,SBP difference value compared with the basic value,[1]; [12],(−3.7 mmHg
same,SBP,[1]; [13],203 mmHg
same,SBP difference value compared with the basic value,[1]; [13],(−1.9 mmHg
same,SBP,[1]; [14],202 mmHg
same,SBP difference value compared with the basic value,[1]; [14],(−2.6 mmHg
same,SBP,[1]; [15],203 mmHg
same,SBP difference value compared with the basic value,[1]; [15],(−1.6 mmHg
same,SBP,[1]; [16],203 mmHg
same,SBP difference value compared with the basic value,[1]; [16],(−3.9 mmHg
same,SBP,[1]; [17],202 mmHg
same,SBP difference value compared with the basic value,[1]; [17],(−4.9 mmHg
same,SBP,[1]; [18],202 mmHg
same,SBP difference value compared with the basic value,[1]; [18],(−4.9 mmHg
same,SBP,[1]; [19],205 mmHg
same,SBP difference value compared with the basic value,[1]; [19],(−2.6 mmHg
same,SBP,[1]; [20],205 mmHg
same,SBP difference value compared with the basic value,[1]; [20],(−2.4 mmHg
same,SBP,[1]; [21],205 mmHg
same,SBP difference value compared with the basic value,[1]; [21],(−2.3 mmHg
same,AUC0-14d,[2]; Chl 0.15625 mg/kg i.g. for 14 days,−36.0 mmHg · d
same,AUC0-24h,"[2]; Chl 0.15625 mg/kg i.g., after first administration",−47.0 mmHg · h
same,lowering of 24-hour blood pressure,[3]; [22],12.4 mmHg
same,lowering of night-time blood pressure,[3]; [22],13.5 mmHg
same,antihypertensive efficacy relative to that of hydrochlorothiazide,[3]; according to Khoska,1.5-2 times
same,reduction of SBP compared with the basic value,patients,12.7-15.9 mmHg
